From patent US9637490B2, “Antifungal 5,6-dihydro-4-[(difluoroethyl)phenyl]-4H-pyrrolo[1,2-α][1,4]benzodiazepine and 4-(difluoroethyl)phenyl-6H-pyrrolo[1,2-α][1,4]benzodiazepine derivatives” (Janssen Pharmaceutica NV, priority 2010, dated 2017)

Assays:
[1] = tested on: Sporothrix schenkii B62482; experiment: Antifungal activity in vitro (resazurin susceptibility screen), Inf. A; assay type: cell-based; conditions: Sporothrix, B62482, Sporothrix schenkii B62482; 27 °C, 4 days, resa time 24 hours
Experimental: (§1) The standard susceptibility screen was performed in 96-well plates (U-bottom, Greiner Bio-One). Serial dilutions (2-fold or 4-fold) of 20 mM compound stock solutions were made in 100% DMSO, followed by an intermediate dilution step in water. These serial dilutions (10 μl) were then spotted onto test-plates that could be stored in the dark at 4° C. for a maximum period of 2 weeks. An adequate broad dose-range was included with 64 μM as the highest in-test concentration. The culture medium RPMI-1640 was supplemented with L-glutamine, 2% glucose and buffered with 3-(N-morpholino)-propanesulfonic acid (MOPS) at pH 7.0±0.1. The different fungal species/isolates (Table 3a) were cryopreserved and 1/1000 diluted in medium just prior to use. A standard inoculum of 200 μl containing 10^3 colony-forming unit (cfu) was then added to each well. A positive control (100% growth=fungal culture without antifungal) and a negative control (0% growth=RPMI-MOPS medium) were included on each plate. Optimal incubation time and temperature were dependent on the fungal species and vary from 24 h for yeasts (37° C.) to one week or more for dermatophytes (27° C.). Inhibition of fungal growth was measured after adding 10 μl of 0.005% (w/v) resazurin (Sigma Aldrich) to each well, based on the principle that living cells convert the non-fluorescent blue resazurin into the pink and fluorescent resorufin, allowing fluorimetric reading (λhd ex 550 nm and μem 590 nm) after an additional incubation period (‘resa’ time mentioned in Table 3a). [table]

Microsporum canis B68128 = experiment: Antifungal activity in vitro (resazurin susceptibility screen), Inf. B; assay type: cell-based; conditions: Microsporum canis, B68128, Microsporum canis B68128; 27 °C, 9 days, resa time 24 hours
Experimental: as §1

[2] = tested on: Trichophyton rubrum B68183; experiment: Antifungal activity in vitro (resazurin susceptibility screen), Inf. C; assay type: cell-based; conditions: Trichophyton rubrum, B68183, Trichophyton rubrum B68183; 27 °C, 7 days, resa time 24 hours
Experimental: as §1

[3] = tested on: Candida parapsilosis B66126; experiment: Antifungal activity in vitro (resazurin susceptibility screen), Inf. D; assay type: cell-based; conditions: Lodderomyces parapsilosis, B66126, Candida parapsilosis B66126; 37 °C, 24 hours, resa time 4 hours
Experimental: as §1

[4] = tested on: Aspergillus fumigatus B42928; experiment: Antifungal activity in vitro (resazurin susceptibility screen), Inf. E; assay type: cell-based; conditions: Aspergillus fumigatus, B42928, Aspergillus fumigatus B42928; 27 °C, 48 hours, resa time 17 hours
Experimental: as §1

[5] = tested on: Cryptococcus neoformans B66663; experiment: Antifungal activity in vitro (resazurin susceptibility screen), Inf. F; assay type: cell-based; conditions: Cryptococcus neoformans, B66663, Cryptococcus neoformans B66663; 37 °C, 24 hours, resa time 4 hours
Experimental: as §1

[6] = tested on: Trichophyton mentagrophytes B70554; experiment: Antifungal activity in vitro (resazurin susceptibility screen), Inf. G; assay type: cell-based; conditions: Trichophyton mentagrophytes, B70554, Trichophyton mentagrophytes B70554; 27 °C, 7 days, resa time 24 hours
Experimental: as §1

[7] = tested on: Scedosporium apiospermum IHEM3817; experiment: Antifungal activity in vitro (resazurin susceptibility screen), Inf. H; assay type: cell-based; conditions: Scedosporium apiospermum, IHEM3817, Scedosporium apiospermum IHEM3817; 37 °C, 48 hours, resa time 17 hours
Experimental: as §1

[8] = tested on: Scedosporium prolificans IHEM21157; experiment: Antifungal activity in vitro (resazurin susceptibility screen), Inf. I; assay type: cell-based; conditions: Lomentospora prolificans, 37 °C, 48 hours, resa time 17 hours
Experimental: as §1

Rhizopus oryzae IHEM5223 = experiment: Antifungal activity in vitro (resazurin susceptibility screen), Inf. J; assay type: cell-based; conditions: Rhizopus arrhizus, 37 °C, 24 hours, resa time 6 hours
Experimental: as §1

[9] = tested on: Rhizomucor miehei IHEM13391; experiment: Antifungal activity in vitro (resazurin susceptibility screen), Inf. K; assay type: cell-based; conditions: Rhizomucor miehei, IHEM13391, Rhizomucor miehei IHEM13391; 37 °C, 48 hours, resa time 17 hours
Experimental: as §1

[10] = tested on: Mucor circinelloides IHEM21105; experiment: Antifungal activity in vitro (resazurin susceptibility screen), Inf. L; assay type: cell-based; conditions: 27 °C, 48 hours, resa time 17 hours
Experimental: as §1

SMILES	IC50 [1]	IC50 (Microsporum canis B68128)	IC50 [2]	IC50 [3]	IC50 [4]	IC50 [5]	IC50 [6]	IC50 [7]	IC50 [8]	IC50 (Rhizopus oryzae IHEM5223)	IC50 [9]	IC50 [10]	melting point
CC(F)(F)c1ccc(C2=NCc3cccc(Cl)c3-n3cccc32)cc1 [Compound 19, 10-chloro-4-[4-(1,1-difluoroethyl)phenyl]-6H-pyrrolo[1,2-a][1,4]benzodiazepine]	2820 nM	2040 nM	214 nM	13200 nM	2040 nM	1620 nM	646 nM	2340 nM	513 nM	9770 nM	14500 nM	> 64600 nM	247.5 °C (dec.)
Cc1ccc(Cl)c2c1CN=C(c1ccc(C(C)(F)F)cc1)c1cccn1-2 [Compound 28, 10-chloro-4-[4-(1,1-difluoroethyl)phenyl]-7-methyl-6H-pyrrolo[1,2-a][1,4]-benzodiazepine]	28200 nM	14100 nM	7410 nM	45700 nM	≥ 64600 nM	16600 nM	26900 nM	708 nM	2290 nM	> 64600 nM	41700 nM	> 64600 nM	139.3 to 141.2 °C
CC(F)(F)c1ccc(C2=NCc3c(Cl)cc(F)cc3-n3cccc32)cc1F [Compound 31, 7-chloro-4-[4-(1,1-difluoroethyl)-3-fluorophenyl]-9-fluoro-6H-pyrrolo[1,2-a][1,4]-benzodiazepine]	2340 nM	437 nM	468 nM	3470 nM	501 nM	295 nM	1260 nM	10500 nM	8710 nM	> 64600 nM	> 64600 nM	> 64600 nM	162.5 to 164.8 °C
CC(F)(F)c1cc(C2=NCc3c(Cl)cc(F)cc3-n3cccc32)ccc1F [Compound 26, 7-chloro-4-[3-(1,1-difluoroethyl)-4-fluorophenyl]-9-fluoro-6H-pyrrolo[1,2-a][1,4]-benzodiazepine]	10200 nM	468 nM	468 nM	3800 nM	589 nM	> 64600 nM	1200 nM	158 nM	191 nM	> 64600 nM	13500 nM	> 64600 nM	84.9 to 85.9 °C
Cc1cc(Cl)cc2c1CN=C(c1ccc(C(C)(F)F)cc1)c1cccn1-2 [Compound 16, 9-chloro-4-[4-(1,1-difluoroethyl)phenyl]-7-methyl-6H-pyrrolo[1,2-a][1,4]-benzodiazepine]	3800 nM	2000 nM	617 nM	10700 nM	1700 nM	724 nM	1660 nM	10200 nM	1200 nM	> 64600 nM	> 64600 nM	> 64600 nM	89.6 to 91.2 °C
CC(F)(F)c1ccc(C2=NCc3c(F)cccc3-n3cccc32)cc1F [Compound 30, 4-[4-(1,1-difluoroethyl)-3-fluorophenyl]-7-fluoro-6H-pyrrolo[1,2-a][1,4]benzodiazepine]	> 64600 nM	468 nM	162 nM	7760 nM	501 nM	1410 nM	363 nM	8910 nM	4570 nM	> 64600 nM	12300 nM	> 64600 nM	170.8 to 171.5 °C
CC(F)(F)c1cc(C2=NCc3c(F)cc(F)cc3-n3cccc32)ccc1F [Compound 23, 4-[3-(1,1-difluoroethyl)-4-fluorophenyl]-7,9-difluoro-6H-pyrrolo[1,2-a][1,4]-benzodiazepine]	9550 nM	417 nM	129 nM	3630 nM	537 nM	> 64600 nM	794 nM	182 nM	100 nM	> 64600 nM	> 64600 nM	> 64600 nM	143.2 to 144.3 °C
CC(F)(F)c1ccc(C2=NCc3c(F)cc(F)cc3-n3cccc32)cc1F [Compound 33, 4-[4-(1,1-difluoroethyl)-3-fluorophenyl]-7,9-difluoro-6H-pyrrolo[1,2-a][1,4]-benzodiazepine]	9330 nM	1950 nM	724 nM	13500 nM	1910 nM	2630 nM	2140 nM	646 nM	10500 nM	> 64600 nM	> 64600 nM	> 64600 nM	158.2 to 161.3 °C
CC(F)(F)c1cc(C2=NCc3c(Cl)cc(Cl)cc3-n3cccc32)ccc1F [Compound 25, 7,9-dichloro-4-[3-(1,1-difluoroethyl)-4-fluorophenyl]-6H-pyrrolo[1,2-a][1,4]-benzodiazepine]	14100 nM	1580 nM	1260 nM	> 64600 nM	1020 nM	> 64600 nM	2190 nM	407 nM	501 nM	> 64600 nM	> 64600 nM	> 64600 nM	124.2 to 125.4 °C
CC(F)(F)c1ccc(C2=NCc3c(Cl)cccc3-n3cccc32)cc1F [Compound 29, 7-chloro-4-[4-(1,1-difluoroethyl)-3-fluorophenyl]-6H-pyrrolo[1,2-a][1,4]benzodiazepine]	> 64600 nM	110 nM	85.1 nM	> 64600 nM	501 nM	> 64600 nM	191 nM	> 64600 nM	> 64600 nM	> 64600 nM	> 64600 nM	> 64600 nM	186.3 to 186.6 °C
